Columns and labels:
Experiment in all cases: biochemical
Design in all cases: KINOMEscan competition binding, DNA-tagged kinase against immobilised ligand, qPCR read-out
Details in all cases: read-out: Percent Control
ULK1 = ULK1 (Homo sapiens, UniProt O75385)
PNCK = PNCK (Homo sapiens, UniProt Q6P2M8)
MAP2K5 = MAP2K5 (Homo sapiens, UniProt Q13163)
MARK4 = MARK4 (Homo sapiens, UniProt Q96L34)
CDK11B = CDK11B (Homo sapiens, UniProt P21127)
ERBB3 = ERBB3 (Homo sapiens, UniProt P21860)
SLK = SLK (Homo sapiens, UniProt Q9H2G2)
BMPR1A = BMPR1A (Homo sapiens, UniProt P36894)
ABL2 = ABL2 (Homo sapiens, UniProt P42684)
DMPK = DMPK (Homo sapiens, UniProt Q09013)
TGFBR1 = TGFBR1 (Homo sapiens, UniProt P36897)
BMPR2 = BMPR2 (Homo sapiens, UniProt Q13873)
CDK4-cyclinD3 = CDK4-cyclinD3 (Homo sapiens, UniProt P11802)
AURKC = AURKC (Homo sapiens, UniProt Q9UQB9)
CDK18 = CDK18 (Homo sapiens, UniProt Q07002)
ICK = molecular target: T1, ICK (Homo sapiens, UniProt Q9UPZ9)
T1 construct: gene CILK1

RIPK2 = RIPK2 (Homo sapiens, UniProt O43353)
FER = FER (Homo sapiens, UniProt P16591)
SGK2 = SGK2 (Homo sapiens, UniProt Q9HBY8)
CSF1R-autoinhibited = CSF1R-autoinhibited (Homo sapiens, UniProt P07333)

RIPK2, sequence (O43353 whole entry): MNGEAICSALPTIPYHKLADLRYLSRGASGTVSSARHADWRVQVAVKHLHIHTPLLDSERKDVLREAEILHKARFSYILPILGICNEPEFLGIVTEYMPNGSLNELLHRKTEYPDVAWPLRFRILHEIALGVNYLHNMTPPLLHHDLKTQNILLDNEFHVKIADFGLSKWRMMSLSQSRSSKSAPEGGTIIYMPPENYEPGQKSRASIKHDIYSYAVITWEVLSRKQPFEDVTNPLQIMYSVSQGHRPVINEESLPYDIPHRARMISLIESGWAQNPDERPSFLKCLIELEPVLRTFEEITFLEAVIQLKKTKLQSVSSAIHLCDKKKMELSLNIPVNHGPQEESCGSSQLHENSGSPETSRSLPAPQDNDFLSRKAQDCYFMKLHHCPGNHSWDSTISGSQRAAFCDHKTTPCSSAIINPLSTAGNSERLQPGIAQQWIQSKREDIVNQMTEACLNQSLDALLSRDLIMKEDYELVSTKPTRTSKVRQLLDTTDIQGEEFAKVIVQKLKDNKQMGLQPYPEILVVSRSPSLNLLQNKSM
MARK4, sequence (Q96L34 whole entry): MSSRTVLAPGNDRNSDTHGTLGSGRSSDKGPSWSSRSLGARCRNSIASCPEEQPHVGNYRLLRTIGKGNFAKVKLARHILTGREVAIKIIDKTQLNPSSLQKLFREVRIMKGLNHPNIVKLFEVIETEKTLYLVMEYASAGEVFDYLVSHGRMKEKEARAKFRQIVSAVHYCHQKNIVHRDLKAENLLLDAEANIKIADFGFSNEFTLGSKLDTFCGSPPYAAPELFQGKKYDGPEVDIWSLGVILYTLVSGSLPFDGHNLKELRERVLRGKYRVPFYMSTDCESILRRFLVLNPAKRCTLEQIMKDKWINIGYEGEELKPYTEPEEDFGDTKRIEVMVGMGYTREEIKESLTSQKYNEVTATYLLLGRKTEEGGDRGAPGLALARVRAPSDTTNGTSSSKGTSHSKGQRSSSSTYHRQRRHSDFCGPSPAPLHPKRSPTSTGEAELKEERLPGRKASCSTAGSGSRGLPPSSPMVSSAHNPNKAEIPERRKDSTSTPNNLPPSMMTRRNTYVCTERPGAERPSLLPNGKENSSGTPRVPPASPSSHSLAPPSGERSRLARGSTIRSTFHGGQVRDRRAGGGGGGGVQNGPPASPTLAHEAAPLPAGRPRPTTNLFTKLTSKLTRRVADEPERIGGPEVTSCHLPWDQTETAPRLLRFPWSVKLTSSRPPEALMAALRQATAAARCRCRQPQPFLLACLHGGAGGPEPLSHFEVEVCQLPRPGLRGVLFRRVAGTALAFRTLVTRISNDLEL
FER, sequence (P16591 whole entry): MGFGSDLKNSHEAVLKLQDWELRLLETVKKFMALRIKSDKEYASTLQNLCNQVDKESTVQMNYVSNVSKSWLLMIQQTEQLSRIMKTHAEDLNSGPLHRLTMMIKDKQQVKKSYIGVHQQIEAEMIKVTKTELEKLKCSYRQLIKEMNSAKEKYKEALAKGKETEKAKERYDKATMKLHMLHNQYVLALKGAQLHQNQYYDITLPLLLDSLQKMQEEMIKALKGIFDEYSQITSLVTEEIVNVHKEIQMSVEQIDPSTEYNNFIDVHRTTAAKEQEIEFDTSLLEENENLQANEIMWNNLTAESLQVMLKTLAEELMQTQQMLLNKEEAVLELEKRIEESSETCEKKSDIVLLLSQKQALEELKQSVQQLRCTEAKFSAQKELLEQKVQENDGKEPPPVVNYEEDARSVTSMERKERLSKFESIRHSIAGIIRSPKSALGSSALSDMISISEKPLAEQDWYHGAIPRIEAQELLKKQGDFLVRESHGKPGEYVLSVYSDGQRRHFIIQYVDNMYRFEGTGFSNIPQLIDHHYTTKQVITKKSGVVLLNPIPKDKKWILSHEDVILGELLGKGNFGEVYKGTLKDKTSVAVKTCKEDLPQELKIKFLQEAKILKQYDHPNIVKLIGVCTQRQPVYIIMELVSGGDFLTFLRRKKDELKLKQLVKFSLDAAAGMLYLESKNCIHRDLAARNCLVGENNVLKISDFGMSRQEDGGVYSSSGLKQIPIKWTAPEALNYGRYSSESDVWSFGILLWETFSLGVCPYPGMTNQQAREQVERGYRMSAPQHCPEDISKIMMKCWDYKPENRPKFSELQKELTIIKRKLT
SGK2, sequence (Q9HBY8 whole entry): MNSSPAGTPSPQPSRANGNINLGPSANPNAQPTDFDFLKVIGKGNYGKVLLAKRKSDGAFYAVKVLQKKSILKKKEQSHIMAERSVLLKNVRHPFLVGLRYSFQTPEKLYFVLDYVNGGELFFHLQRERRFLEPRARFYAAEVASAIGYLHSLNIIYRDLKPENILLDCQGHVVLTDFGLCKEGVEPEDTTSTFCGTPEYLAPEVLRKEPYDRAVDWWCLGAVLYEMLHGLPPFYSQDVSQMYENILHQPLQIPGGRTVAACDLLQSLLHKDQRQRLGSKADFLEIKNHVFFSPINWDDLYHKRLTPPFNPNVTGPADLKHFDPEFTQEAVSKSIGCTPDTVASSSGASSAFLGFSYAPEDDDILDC
PNCK, sequence (Q6P2M8 whole entry): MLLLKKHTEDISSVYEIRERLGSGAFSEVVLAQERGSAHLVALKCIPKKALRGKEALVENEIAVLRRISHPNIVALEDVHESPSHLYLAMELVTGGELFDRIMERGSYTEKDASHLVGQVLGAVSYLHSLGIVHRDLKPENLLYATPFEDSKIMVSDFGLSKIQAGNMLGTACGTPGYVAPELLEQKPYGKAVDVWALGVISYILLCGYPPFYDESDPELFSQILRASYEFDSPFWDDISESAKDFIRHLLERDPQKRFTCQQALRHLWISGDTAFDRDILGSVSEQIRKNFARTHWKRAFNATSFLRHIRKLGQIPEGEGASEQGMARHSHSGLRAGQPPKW
CDK18, sequence (Q07002 whole entry): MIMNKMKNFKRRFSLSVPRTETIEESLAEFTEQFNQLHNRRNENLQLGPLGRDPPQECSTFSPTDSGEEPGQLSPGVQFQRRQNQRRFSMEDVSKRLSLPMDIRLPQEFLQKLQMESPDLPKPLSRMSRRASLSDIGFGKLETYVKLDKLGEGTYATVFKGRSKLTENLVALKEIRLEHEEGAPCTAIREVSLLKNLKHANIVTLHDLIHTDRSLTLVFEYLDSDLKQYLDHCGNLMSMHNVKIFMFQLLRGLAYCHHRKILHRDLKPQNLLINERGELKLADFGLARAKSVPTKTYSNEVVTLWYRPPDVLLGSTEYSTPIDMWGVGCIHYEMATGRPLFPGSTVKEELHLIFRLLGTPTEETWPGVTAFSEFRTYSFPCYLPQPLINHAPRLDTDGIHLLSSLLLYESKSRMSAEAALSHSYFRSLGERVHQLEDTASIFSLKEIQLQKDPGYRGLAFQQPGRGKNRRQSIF
AURKC, sequence (Q9UQB9 whole entry): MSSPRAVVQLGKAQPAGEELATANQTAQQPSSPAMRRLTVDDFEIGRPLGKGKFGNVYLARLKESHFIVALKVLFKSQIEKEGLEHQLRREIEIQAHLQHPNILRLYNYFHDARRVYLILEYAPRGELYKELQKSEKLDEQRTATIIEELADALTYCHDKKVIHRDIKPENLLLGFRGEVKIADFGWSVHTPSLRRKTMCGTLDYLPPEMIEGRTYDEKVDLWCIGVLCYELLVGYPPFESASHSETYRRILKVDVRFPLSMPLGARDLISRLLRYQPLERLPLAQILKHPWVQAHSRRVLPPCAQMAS
CDK4-cyclinD3, sequence (P11802 whole entry): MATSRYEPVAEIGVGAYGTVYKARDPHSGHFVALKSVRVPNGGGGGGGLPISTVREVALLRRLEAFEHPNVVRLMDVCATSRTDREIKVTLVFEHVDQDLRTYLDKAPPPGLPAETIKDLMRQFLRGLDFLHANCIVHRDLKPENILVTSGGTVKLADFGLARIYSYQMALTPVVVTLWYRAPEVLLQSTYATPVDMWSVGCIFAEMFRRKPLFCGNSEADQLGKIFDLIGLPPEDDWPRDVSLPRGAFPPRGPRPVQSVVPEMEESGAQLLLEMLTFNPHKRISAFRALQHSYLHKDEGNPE
CDK4-cyclinD3, sequence (P30281 whole entry partner): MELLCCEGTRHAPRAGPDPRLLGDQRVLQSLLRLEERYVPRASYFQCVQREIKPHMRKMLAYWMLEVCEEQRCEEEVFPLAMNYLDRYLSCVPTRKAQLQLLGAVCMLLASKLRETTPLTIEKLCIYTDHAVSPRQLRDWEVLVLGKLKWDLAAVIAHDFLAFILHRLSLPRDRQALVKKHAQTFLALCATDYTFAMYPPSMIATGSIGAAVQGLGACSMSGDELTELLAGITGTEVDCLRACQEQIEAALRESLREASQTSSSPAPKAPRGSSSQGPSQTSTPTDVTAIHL
CDK11B, sequence (P21127 whole entry): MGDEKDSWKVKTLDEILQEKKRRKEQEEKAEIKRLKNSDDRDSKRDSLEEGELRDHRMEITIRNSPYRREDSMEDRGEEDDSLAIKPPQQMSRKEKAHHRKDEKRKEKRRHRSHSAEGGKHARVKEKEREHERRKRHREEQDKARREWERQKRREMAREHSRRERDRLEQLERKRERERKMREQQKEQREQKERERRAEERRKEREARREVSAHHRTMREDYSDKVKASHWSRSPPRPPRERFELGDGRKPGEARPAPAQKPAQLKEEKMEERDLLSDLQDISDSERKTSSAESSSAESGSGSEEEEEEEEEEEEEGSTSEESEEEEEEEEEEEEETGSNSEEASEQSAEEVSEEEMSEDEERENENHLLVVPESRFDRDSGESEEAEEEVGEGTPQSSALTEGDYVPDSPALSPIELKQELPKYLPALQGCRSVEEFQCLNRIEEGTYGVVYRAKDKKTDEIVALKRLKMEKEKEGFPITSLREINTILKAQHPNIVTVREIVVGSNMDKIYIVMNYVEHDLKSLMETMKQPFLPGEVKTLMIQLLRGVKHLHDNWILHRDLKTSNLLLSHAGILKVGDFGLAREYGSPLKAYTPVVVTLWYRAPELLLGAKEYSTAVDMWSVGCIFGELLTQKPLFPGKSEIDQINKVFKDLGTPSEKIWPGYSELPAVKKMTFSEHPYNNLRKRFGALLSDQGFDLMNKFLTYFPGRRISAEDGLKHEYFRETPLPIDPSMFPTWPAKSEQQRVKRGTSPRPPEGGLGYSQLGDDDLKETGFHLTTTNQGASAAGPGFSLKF

Oc1ccc(C2=Cc3ccc(O)cc3OC2)cc1 [compound 1, idronoxil]
remaining binding at 10 µM (ULK1): 89%
remaining binding at 10 µM (PNCK): 74%
remaining binding at 10 µM (MAP2K5): 62%
remaining binding at 10 µM (MARK4): 97%
remaining binding at 10 µM (CDK11B): 96%
remaining binding at 10 µM (ERBB3): 73%
remaining binding at 10 µM (SLK): 73%
remaining binding at 10 µM (BMPR1A): 89%
remaining binding at 10 µM (ABL2): 79%
remaining binding at 10 µM (DMPK): 92%
remaining binding at 10 µM (TGFBR1): 78%
remaining binding at 10 µM (BMPR2): 99%
remaining binding at 10 µM (CDK4-cyclinD3): 85%
remaining binding at 10 µM (AURKC): 74%
remaining binding at 10 µM (CDK18): 71%
remaining binding at 10 µM (ICK): 100%
remaining binding at 10 µM (RIPK2): 81%
remaining binding at 10 µM (FER): 78%
remaining binding at 10 µM (SGK2): 95%
remaining binding at 10 µM (CSF1R-autoinhibited): 67%

Source: publication PMC10507085, “Pharmacological inhibition of TBK1/IKKε blunts immunopathology in a murine model of SARS-CoV-2 infection” (Nature Communications, 2023)
